Results as given in patent publication US8618147B2, “Modified macrophage migration inhibitory factor inhibitors” (The Feinstein Institute for Medical Research, priority 2006, dated 2013).
“Also recorded” adds a separate entry of the source.

Experiments:
[1] = versus 40% control; cited from earlier work
MIF = MIF (Homo sapiens (Human), UniProt P14174); experiment: MIF dopachrome tautomerase assay; assay type: biochemical; conditions: (S)-isomer relative to (R)-isomer
Procedure: MIF tautomerase activity was measured by UV-Visible recording spectrophotometry (SHIMADZU, UV1600U). A fresh stock solution of L-dopachrome methyl ester was prepared at 2.4 mM through oxidation of L-3,4-dihydroxyphenylalanine methyl ester with sodium periodate. 1 μL of MIF solution (800-900 ng/mL) and 1 μL of a DMSO solution with various concentrations of the enzymatic inhibitor were added into a plastic cuvette (10 mm, 1.5 mL) containing 0.7 mL assay buffer (50 mM potassium phosphate, pH 7.2). Then L-dopachrome methyl ester solution (0.3 mL) was added to the assay buffer mixture. Activity was determined at room temperature and the spectrometric measurements were made at λ=475 nm for 20 seconds by monitoring the rate of decolorization of L-dopachrome methyl ester in comparison to a standard solution.

[2] = system: rheumatoid arthritis fibroblast-like synoviocytes (RA-FLS); experiment: Cell invasion through Matrigel Invasion Chambers; assay type: cell-based; conditions: 100 nM ISO-63 or 25 μM ISO-1, one day treatment, 24 hours incubation
Procedure: Invasion was assayed by measuring cell invasion through Matrigel Invasion Chambers (Becton Dickinson, Mass.). […] 500 μl of whole medium containing 10% FBS and 10% human serum and was added to the bottom chamber. After 24 hours of incubation at 37° C., cells on the upper surface of the filter were wiped off with a Q-tip and the filter was fixed in 4% formaldehyde/PBS. After staining with crystal violet, migrated cells were counted using an inverted microscope.

leukocyte recruitment = experiment: Air pouch carrageenan model of acute inflammation, leukocyte recruitment; assay type: in vivo, Swiss Webster male mice; conditions: 40 mg/kg single i.p., 15 min before 1% carrageenan into air pouch, 5 hr after carrageenan
Procedure: Air pouches were made according to standard procedures (Garcia-Ramallo et al., 2002) on Swiss Webster male mice (25-30 g) by injecting sterile air s.c. on day 0 (6 ml) and day 3 (3 ml). […] After 15 min, the animals were challenged by injecting 1 ml 1% carrageenan (in PBS) into the air pouch cavity. Five hr after carrageenan injection the animals were sacrificed, the pouches washed with PBS, exudate collected, and the total number of infiltrating cells quantitated.

Sequence of MIF (P14174 2-115): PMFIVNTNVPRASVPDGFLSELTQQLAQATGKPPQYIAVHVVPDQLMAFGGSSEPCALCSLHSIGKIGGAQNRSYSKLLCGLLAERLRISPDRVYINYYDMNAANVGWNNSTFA

For `COC(=O)C[C@@H]1CC(c2ccc(O)cc2)=NO1` (racemic) [ISO-1, (S,R)-3-(4-hydroxyphenyl)-4,5-dihydro-5-isoxazole acetic acid methyl ester, reference compound], the “protection in sepsis model” value [1] is listed as 80%.
For `COC(=O)C[C@@H]1CC(c2ccc(O)cc2)=NO1` [(S)-ISO-1], the “less active than the (R)-isomer” value (MIF) was 50%.
In the case of `CC(C)C(OC(=O)CC1CC(c2ccc(O)c(F)c2)=NO1)C(C)C` (stereo not shown) [ISO-63], the “invasion of RA-FLS into Matrigel (migrated cells)” value [2] is reported as “inhibits the invasion; also recorded: reduced cell invasion to a much greater extent than the ISO-1 treatment” and the “leukocyte recruitment (total number of infiltrating cells)” value (leukocyte recruitment) is reported as “inhibits leukocyte recruitment; also recorded: caused a significant reduction in leukocyte recruitment”.
